Like-named read-outs stand apart in the source and are kept apart here.
Experiment: Ocular tissue and plasma pharmacokinetics, 15 mg/kg single and BID oral, Dutch Belted rabbits (Example 3/5)
Type: in vivo
Conditions: Dutch Belted, rabbit, 15 mg/kg; for MRT inf / MRT last / half-life / Cmax: Iris-Ciliary Body; for Cmax: read-out: Cmax
Procedure: Study design including group designation and dose levels are outlined in Table 4. […] Fifteen Dutch Belted and 5 New Zealand White rabbits were used as un-dosed controls. […] The dose volume was 5 mL/kg/dose for all groups. Safety was assessed with toxicological and ophthalmic examinations including slit lamp biomicroscopy, indirect ophthalmoscopy, rebound tonometry, and ultrasonic corneal pachymetry.
Analyst® software (Version 1.6.2) was used to capture the LC-MS/MS data and integrate the peak areas. Calibration standards and QCs were prepared in a blank solution of 75%:25% acetonitrile:water (v:v), ranging from 10 ng/mL to 10,000 ng/mL. Matrix matched standard and QC samples were prepared by mixing 2 μL of standard or QC sample above with 18 μL of appropriate ocular tissue or plasma. The final calibration standards ranged from 1 ng/mL to 1000 ng/mL. All plasma, retina, choroid-RPE, optic nerve, and vitreous humor samples were analyzed in a single run. Iris-ciliary body samples were analyzed in two runs due to a need for sample dilution. […] Dilution QCs were prepared at 5000 ng/mL where appropriate. Two sets of standards were used to bracket the analytical run at the beginning and end of the run. Three sets of QCs were included the analytical runs. All concentrations in ocular matrices are reported as ng/g based on the assumed density of 1 g/mL.
1, 6, 24, 96, 168, and 240 hours post-dose on Day 15, with the eyes collected at the same time as blood sampling. A single blood sample was taken from Groups 4 and 5 at sacrifice. Plasma, vitreous humor (VH), retina, choroid-retina pigmented epithelium (Choroid-RPE), optic nerve (ON), and iris-ciliary body (I-CB) were analyzed by LC-MS/MS to quantify test article concentrations. The lower limit of quantitation (LLOQ) in plasma and vitreous humor was 1.0 ng/mL. The LLOQ was 6.0 ng/g in retina, Choroid-RPE, and I-CB and the optic nerve LLOQ was 15 ng/g, assuming tissue density of 1 g/mL where relevant.
Study design including group designation and dose levels are outlined in Table 18.

[1] = iris-ciliary body, po, DB rabbit, 15 mg/kg BID, Day 15
[2] = iris-ciliary body, po, DB rabbit, 15 mg/kg single dose, Day 1

## CC(=O)c1nn(CC(=O)N2C[C@H](F)C[C@H]2C(=O)Nc2cccc(Br)n2)c2ccc(-c3cnc(C)nc3)cc12 [Compound 1, (2S,4R)-1-(2-(3-Acetyl-5-(2-methylpyrimidin-5-yl)-1H-indazol-1-yl)acetyl)-N-(6-bromopyridin-2-yl)-4-fluoropyrrolidine-2-carboxamide]
iris-ciliary body, po, DB rabbit, 15 mg/kg BID oral, Day 15, 0 h, read-out: Mean Iris-Ciliary Body concentration
  concentration at 0 h: 2900 ng/g
iris-ciliary body, po, DB rabbit, 15 mg/kg BID oral, Day 15, 1 h, read-out: Mean Iris-Ciliary Body concentration
  concentration at 1 h: 4920 ng/g
iris-ciliary body, po, DB rabbit, 15 mg/kg BID oral, Day 15, 6 h, read-out: Mean Iris-Ciliary Body concentration
  concentration at 6 h: 3510 ng/g
iris-ciliary body, po, DB rabbit, 15 mg/kg BID oral, Day 15, 24 h, read-out: Mean Iris-Ciliary Body concentration
  concentration at 24 h: 1640 ng/g
iris-ciliary body, po, DB rabbit, 15 mg/kg BID oral, Day 15, 96 h, read-out: Mean Iris-Ciliary Body concentration
  concentration at 96 h: 1010 ng/g
iris-ciliary body, po, DB rabbit, 15 mg/kg BID oral, Day 15, 168 h, read-out: Mean Iris-Ciliary Body concentration
  concentration at 168 h: 612 ng/g
iris-ciliary body, po, DB rabbit, 15 mg/kg BID oral, Day 15, 240 h, read-out: Mean Iris-Ciliary Body concentration
  concentration at 240 h: 408 ng/g
iris-ciliary body, po, DB rabbit, 15 mg/kg single oral dose, Day 1, 1 h, read-out: Mean Iris-Ciliary Body concentration
  concentration at 1 h: 1010 ng/g
iris-ciliary body, po, DB rabbit, 15 mg/kg single oral dose, Day 1, 6 h, read-out: Mean Iris-Ciliary Body concentration
  concentration at 6 h: 528 ng/g
iris-ciliary body, po, DB rabbit, 15 mg/kg single oral dose, Day 1, 24 h, read-out: Mean Iris-Ciliary Body concentration
  concentration at 24 h: 300 ng/g
iris-ciliary body, po, DB rabbit, 15 mg/kg single oral dose, Day 1, 96 h, read-out: Mean Iris-Ciliary Body concentration
  concentration at 96 h: 57.9 ng/g
iris-ciliary body, po, DB rabbit, 15 mg/kg single oral dose, Day 1, 168 h, read-out: Mean Iris-Ciliary Body concentration
  concentration at 168 h: 27.1 ng/g
iris-ciliary body, po, DB rabbit, 15 mg/kg single oral dose, Day 1, 240 h, read-out: Mean Iris-Ciliary Body concentration
  concentration at 240 h: 33.6 ng/g
[1]
  MRT inf: 81.5 h
  MRT last: 76.2 h
  half-life: 107 h
  Cmax: 4920 ng/g
[2]
  MRT inf: 69 h
  MRT last: 46.2 h
  half-life: 56 h
  Cmax: 1010 ng/g
plasma, po, DB rabbit, 15 mg/kg BID oral, Day 15, 0 h, read-out: Mean plasma concentration
  concentration at 0 h: 55.2 ng/mL
plasma, po, DB rabbit, 15 mg/kg BID oral, Day 15, 1 h, read-out: Mean plasma concentration
  concentration at 1 h: 845 ng/mL
plasma, po, DB rabbit, 15 mg/kg BID oral, Day 15, 6 h, read-out: Mean plasma concentration
  concentration at 6 h: 92.2 ng/mL
plasma, po, DB rabbit, 15 mg/kg BID oral, Day 15, 24 h, read-out: Mean plasma concentration
  concentration at 24 h: 5.6 ng/mL
plasma, po, DB rabbit, 15 mg/kg BID oral, Day 15, 96 h, read-out: Mean plasma concentration
  concentration at 96 h: 3.19 ng/mL
plasma, po, DB rabbit, 15 mg/kg single oral dose, Day 1, 1 h, read-out: Mean plasma concentration
  concentration at 1 h: 318 ng/mL
plasma, po, DB rabbit, 15 mg/kg single oral dose, Day 1, 6 h, read-out: Mean plasma concentration
  concentration at 6 h: 33.7 ng/mL
plasma, po, DB rabbit, 15 mg/kg single oral dose, Day 1, 24 h, read-out: Mean plasma concentration
  concentration at 24 h: 25.4 ng/mL
retina, oral, DB rabbits, Day 1, 15 mg/kg single dose, 1 hr, read-out: Mean Retina Concentration
  concentration at 1 h: 145 ng/g
retina, oral, DB rabbits, Day 1, 15 mg/kg single dose, 6 hr, read-out: Mean Retina Concentration
  concentration at 6 h: 29.6 ng/g
retina, oral, DB rabbits, Day 1, 15 mg/kg single dose, 24 hr, read-out: Mean Retina Concentration
  concentration at 24 h: 24.7 ng/g
retina, oral, DB rabbits, Day 15, 15 mg/kg BID, 0 hr, read-out: Mean Retina Concentration
  concentration at 0 h: 114 ng/g
retina, oral, DB rabbits, Day 15, 15 mg/kg BID, 1 hr, read-out: Mean Retina Concentration
  concentration at 1 h: 576 ng/g
retina, oral, DB rabbits, Day 15, 15 mg/kg BID, 6 hr, read-out: Mean Retina Concentration
  concentration at 6 h: 237 ng/g
retina, oral, DB rabbits, Day 15, 15 mg/kg BID, 24 hr, read-out: Mean Retina Concentration
  concentration at 24 h: 74.3 ng/g
retina, oral, DB rabbits, Day 15, 15 mg/kg BID, 96 hr, read-out: Mean Retina Concentration
  concentration at 96 h: 28.1 ng/g
retina, oral, DB rabbits, Day 15, 15 mg/kg BID, 168 hr, read-out: Mean Retina Concentration
  concentration at 168 h: 36.5 ng/g
retina, oral, DB rabbits, Day 15, 15 mg/kg BID, 240 hr, read-out: Mean Retina Concentration
  concentration at 240 h: 25.3 ng/g

Reference: patent US20230126447A1, “OCULAR DRUG DEPOT FOR COMPLEMENT-MEDIATED DISORDERS” (priority 2020, published 2023)
